Entries after “also recorded” stand apart in the source; their conditions may differ.
What was measured:
Format in all cases: physicochemical
[1] = Stability test (appearance, related substances, XRPD) under high humidity, 60° C. and light
Protocol: Experiment Method: The test product was placed under high humidity (25° C./RH 92.5% or 40° C./RH 75%) conditions or under 60° C. conditions for 10 days, and samples were taken on the 5th and 10th days, respectively; and placed under light (4500 LX±500 LX) conditions for 10 days, a sample was taken on the 10th day and tested for related substances and XRPD, and the same was compared with the sample of day 0.
Relevant substances: Measured according to Chinese Pharmacopoeia, 2015 edition, Volume II, Appendix V D High Performance Liquid Chromatography.
XRPD measurement: Measured according to Chinese Pharmacopoeia, 2015 edition, Volume IV, 0451 X-Ray Diffraction Method.
The test product was placed under 25° C./RH 92.5% or under 60° C. conditions for 10 days, and was sampled on the 5th and 10th days respectively; the test product was placed under light (4500 LX±500 LX) or 40° C./RH 75% conditions for 10 days, sampled on the 10th day and tested for related substances and XRPD, and compared with the sample of day 0.
Related substances: Measured according to Chinese Pharmacopoeia, 2015 edition, Volume II, Appendix V D High Performance Liquid Chromatography.
XRPD Measurement: Chinese Pharmacopoeia, 2015 edition, Volume IV, 0451 X-Ray Diffraction Method.

Hygroscopicity test = settings: Chinese Pharmacopoeia 2015, 9103
Excerpt: Measurement method: Measured according to Chinese Pharmacopoeia, 2015 edition, Volume IV, General Principles, 9103 Guiding Principles for Hygroscopicity Test on Drugs.

[2] = Particle size measurement (laser particle size analyzer); settings: water dispersant, Tween 80
Protocol: An appropriate amount of the test product was taken, 0.1 mL of a 1% Tween 80 solution was added to reduce the surface tension, and water was used as a dispersant to prepare a uniformly dispersed suspension. The same was placed in a sample dispersion device, the stirring speed was adjusted to 2000 rpm, ultrasonication was carried out for 2 min at an ultrasonic frequency of 7 KHz, and measurement was carried out.

[3] = Compressibility experiment (tablet hardness vs tablet thickness); settings: for Maximum tablet hardness: as tablet thickness decreases (tableting force increases)
Excerpt: The change of tablet hardness with tablet thickness was investigated, and compressibility was compared.

Tablet disintegration = settings: 40 mg tablet with adjuvants
Excerpt: (§1) The disintegration and dissolution was investigated under the following conditions.
(§2) Dissolution Method: Paddle method (Chinese Pharmacopoeia, 2015 edition, Volume IV, 0931 Dissolution and Release Measurement methods, Method II); medium: 0.2% SDS aqueous solution; and rotation speed: 50 r/min.

[4] = Tablet dissolution, paddle method; settings: 0.2% SDS aqueous solution, 50 r/min
Excerpt: as §1, §2

CCN1CCN(Cc2cnc(Nc3cc(-c4cc(F)c5nc(C)n(C(C)C)c5c4)c(F)cn3)nc2)CC1 [Crystal form A of the compound of formula (I)] [5-((4-ethylpiperazin-1-yl)methyl)-N-(5-fluoro-4-(4-fluoro-1-isopropyl-2-methyl-1H-benzo[d]imidazol-6-yl)pyridin-2-yl)pyrimidin-2-amine]
Appearance ([1]; 0 day): Off-white | Related substance (%) ([1]; 0 day): 0.11% | XRPD (solid form found) ([1]; 0 day): Crystal form A | Appearance ([1]; 25° C./RH 92.5% Open, 5 day): Off-white | Related substance (%) ([1]; 25° C./RH 92.5% Open, 5 day): 0.09% | XRPD (solid form found) ([1]; 25° C./RH 92.5% Open, 5 day): Crystal form A | Appearance ([1]; 25° C./RH 92.5% Open, 10 day): Off-white | Related substance (%) ([1]; 25° C./RH 92.5% Open, 10 day): 0.09% | XRPD (solid form found) ([1]; 25° C./RH 92.5% Open, 10 day): Crystal form A | Appearance ([1]; 40° C./RH 75% Closed, 5 day): Off-white | Related substance (%) ([1]; 40° C./RH 75% Closed, 5 day): 0.10% | XRPD (solid form found) ([1]; 40° C./RH 75% Closed, 5 day): Crystal form A | Appearance ([1]; 40° C./RH 75% Closed, 10 day): Off-white | Related substance (%) ([1]; 40° C./RH 75% Closed, 10 day): 0.20% | XRPD (solid form found) ([1]; 40° C./RH 75% Closed, 10 day): Crystal form A | Appearance ([1]; 40° C./RH 75% Open, 5 day): Off-white | Related substance (%) ([1]; 40° C./RH 75% Open, 5 day): 0.10% | XRPD (solid form found) ([1]; 40° C./RH 75% Open, 5 day): Crystal form A | Appearance ([1]; 40° C./RH 75% Open, 10 day): Off-white | Related substance (%) ([1]; 40° C./RH 75% Open, 10 day): 0.20% | XRPD (solid form found) ([1]; 40° C./RH 75% Open, 10 day): Crystal form A | Appearance ([1]; 60° C. Closed, 5 day): Off-white | Related substance (%) ([1]; 60° C. Closed, 5 day): 0.09% | XRPD (solid form found) ([1]; 60° C. Closed, 5 day): Crystal form A | Appearance ([1]; 60° C. Closed, 10 day): Off-white | Related substance (%) ([1]; 60° C. Closed, 10 day): 0.11% | XRPD (solid form found) ([1]; 60° C. Closed, 10 day): Crystal form A | Appearance ([1]; 60° C. Open, 5 day): Off-white | Related substance (%) ([1]; 60° C. Open, 5 day): 0.11% | XRPD (solid form found) ([1]; 60° C. Open, 5 day): Crystal form A | Appearance ([1]; 60° C. Open, 10 day): Off-white | Related substance (%) ([1]; 60° C. Open, 10 day): 0.14% | XRPD (solid form found) ([1]; 60° C. Open, 10 day): Crystal form A | Change of properties (appearance, related substances, XRPD) ([1]; 60° C. or light conditions, 10 days): no obvious change | Appearance ([1]; Light (4500 LX±500 LX), 10 day): Off-white | Related substance (%) ([1]; Light (4500 LX±500 LX), 10 day): 0.09% | XRPD (solid form found) ([1]; Light (4500 LX±500 LX), 10 day): Crystal form A | Hygroscopicity results (Hygroscopicity test): No or almost no moisture | Moisture absorption weight gain (%) (Hygroscopicity test): 0.003% | Particle size distribution, 10% of the sample [2]: ≤ 2.501 μm | Particle size distribution, 50% of the sample [2]: ≤ 10.432 μm | Particle size distribution, 90% of the sample [2]: ≤ 59.852 μm | Hardness of tablet ([3]; Tablet thickness 0.9 mm, "/" means no tablet can be formed at that thickness): 2.97 kg | Hardness of tablet ([3]; Tablet thickness 1.3 mm, "/" means no tablet can be formed at that thickness): 3.50 kg | Hardness of tablet ([3]; Tablet thickness 1.8 mm): 5.40 kg | Hardness of tablet ([3]; Tablet thickness 2.0 mm): 1.76 kg | Hardness of tablet ([3]; Tablet thickness 2.4 mm): 0 kg | Maximum tablet hardness [3]: about 5.4 kg | Disintegration time (Tablet disintegration): 4 min | Time to complete dissolution [4]: ≤ 60 min | Cumulative dissolution (%) ([4]; 5 min): 69.2% | Cumulative dissolution (%) ([4]; 10 min): 90.7% | Cumulative dissolution (%) ([4]; 15 min): 93.8% | Cumulative dissolution (%) ([4]; 30 min): 96.6% | Cumulative dissolution (%) ([4]; 45 min): 97.5% | Cumulative dissolution (%) ([4]; 60 min): 97.9%

CCN1CCN(Cc2cnc(Nc3cc(-c4cc(F)c5nc(C)n(C(C)C)c5c4)c(F)cn3)nc2)CC1 [Compound of formula (I), 5-((4-ethylpiperazin-1-yl)methyl)-N-(5-fluoro-4-(4-fluoro-1-isopropyl-2-methyl-1H-benzo[d]imidazol-6-yl)pyridin-2-yl)pyrimidin-2-amine]
Appearance ([1]; 0 day): Off-white | Related substance (%) ([1]; 0 day): 0.14% | XRPD (solid form found) ([1]; 0 day): Amorphous | Appearance ([1]; 25° C./RH 92.5% Open, 5 day): Off-white | Related substance (%) ([1]; 25° C./RH 92.5% Open, 5 day): 0.14% | XRPD (solid form found) ([1]; 25° C./RH 92.5% Open, 5 day): Amorphous | Appearance ([1]; 25° C./RH 92.5% Open, 10 day): Off-white | Related substance (%) ([1]; 25° C./RH 92.5% Open, 10 day): 0.19% | XRPD (solid form found) ([1]; 25° C./RH 92.5% Open, 10 day): Amorphous | Appearance ([1]; 40° C./RH 75% Open, 10 day): Off-white | Related substance (%) ([1]; 40° C./RH 75% Open, 10 day): 0.19% | XRPD (solid form found) ([1]; 40° C./RH 75% Open, 10 day): Amorphous | Appearance ([1]; 60° C. Open, 5 day): Light yellow | Related substance (%) ([1]; 60° C. Open, 5 day): 0.67% | XRPD (solid form found) ([1]; 60° C. Open, 5 day): Amorphous | Appearance ([1]; 60° C. Open, 10 day): Light yellow | Related substance (%) ([1]; 60° C. Open, 10 day): 1.15% | XRPD (solid form found) ([1]; 60° C. Open, 10 day): Amorphous | Appearance ([1]; Light (4500 LX±500 LX), 10 day): Light yellow | Related substance (%) ([1]; Light (4500 LX±500 LX), 10 day): 10.54% | XRPD (solid form found) ([1]; Light (4500 LX±500 LX), 10 day): Amorphous | Related substance (%) ([1]; Light (4500 LX±500 LX), 10 day, listed as amorphous form): up to 10.54% | Hygroscopicity results (Hygroscopicity test): Moisture absorbability | Moisture absorption weight gain (%) (Hygroscopicity test): 6.3% | Hardness of tablet ([3]; Tablet thickness 1.8 mm, listed as amorphous form): 2.75 kg | Hardness of tablet ([3]; Tablet thickness 2.0 mm, listed as amorphous form): 0.59 kg | Hardness of tablet ([3]; Tablet thickness 2.4 mm, listed as amorphous form): 0.72 kg | Maximum tablet hardness ([3]; listed as amorphous form): about 2.75 kg | Behaviour during tabletting (observation) ([3]; during the process of tabletting, listed as amorphous form): prone to wall sticking; also recorded: prone to capping | Disintegration behaviour (observation) (Tablet disintegration): Absorbed water | Disintegration time (Tablet disintegration; listed as Amorphous form): >30 min | Cumulative dissolution (%) ([4]; 5 min, listed as Amorphous form): 1.0% | Cumulative dissolution (%) ([4]; 10 min, listed as Amorphous form): 2.7% | Cumulative dissolution (%) ([4]; 15 min, listed as Amorphous form): 4.6% | Cumulative dissolution (%) ([4]; 30 min, listed as Amorphous form): 9.2% | Cumulative dissolution (%) ([4]; 45 min, listed as Amorphous form): 13.2% | Cumulative dissolution (%) ([4]; 60 min, listed as Amorphous form): 18.5%
